Reference: publication PMC8510344, “Bile-Acid-Appended Triazolyl Aryl Ketones: Design, Synthesis, In Vitro Anticancer Activity and Pharmacokinetics in Rats” (Molecules, 2021)
Where “and” joins values, the source holds several entries; their conditions need not be identical. Equal values may be shown once. Read-outs that look alike come from different tables or passages of the source.

Columns and labels:
[1] = test system: leukemia cell line (K562); conditions: cited from earlier work
[2] = test system: Human prostate cancer cell line (PC-3); design: method as in PMID 23884119, PMID 25476168, PMID 30220830, PMID 23584541, PMID 28158265; conditions: literature example of Figure 1; cited from earlier work
[3] = test system: Lymphoblastic leukemia cell line (CCRF-CEM); design: method as in PMID 23291595; conditions: cited from earlier work
[4] = test system: leukemia cell line (Jurkat); design: method as in doi:10.1039/c3nj00513e; conditions: cited from earlier work
[5] = test system: MCF-7 (human breast adenocarcinoma) cells; assay: MTT cytotoxicity assay, MCF-7; type: cell-based; conditions: Homo sapiens, MCF7, 10 µM, 48 h exposure, read-out: % Cell Viability at 10 µM MCF-7
Procedure: (§1) The cytotoxicity activity of all the conjugates (6aa–6df) was evaluated in vitro by MTT assay against two different breast cancer cell lines 4T1 (murine) and MCF-7 (human) and HEK 293 (human) as normal cell line. DTX was used as positive control. Cells were grown in DMEM supplemented with 10% FBS and 1% antibiotic solution and incubated at 5% CO2 and 37 °C for 24 h. The stock solutions of all the conjugates were prepared in DMSO and diluted for further use. Briefly, 5 × 10^3 cells/well were seeded in 96-well cell culture plates and allowed to adhere for 24 h. Cell inhibition (%) was determined after 48 h exposure to the compounds at 1–25 μM concentration. After 48 h, MTT assay was performed and the yellow tetrazolium salt (MTT) was reduced in metabolically active cells to form insoluble purple formazan crystals, which were solubilized by the addition of DMSO. The optical density (OD) was recorded at 560 nm and 630 nm as reference wavelength. Percentage cell inhibition was determined by comparison with untreated cells.

[6] = test system: 4T1 (mouse mammary carcinoma) cells; assay: MTT cytotoxicity assay, 4T1; type: cell-based; conditions: Mus musculus, 10 µM, 48 h exposure, read-out: % Cell Viability at 10 µM 4T1
Procedure: as §1

4T1 cells = assay: Annexin V/PI apoptosis assay by flow cytometry, 4T1; type: cell-based, mouse; conditions: 6af at 12.84 µM, 6cf at 8.76 µM (respective IC50), 48 h
Procedure: (§2) The extent of apoptosis induced by compounds 6af and 6cf in MCF-7 and 4T1 cells was quantified by flow cytometry according to the manufacturer’s protocol. Briefly, cells were seeded in a 6-well plate at a cell density of 1 × 10^6 cells/well. After 24 h, the media was discarded and cells were treated with fresh media containing compounds 6af and 6cf at their respective IC50 concentrations for 48 h. After treatment, cells were trypsinized, harvested in PBS and collected by centrifugation for 5 min at 2000 rpm. Cells were then resuspended in 1X binding buffer and stained with FITC-labeled Annexin V Alexa Fluor 488 (5 μL) and propidium iodide (10 μL). Cells were analyzed using flow cytometer (Beckman Coulter), and data were analyzed with CytExpert software.

MCF-7 cells = assay: Annexin V/PI apoptosis assay by flow cytometry, MCF-7; type: cell-based, human; conditions: 6af at 2.61 µM, 6cf at 5.71 µM (respective IC50), 48 h
Procedure: as §2

[7] = MTT cytotoxicity assay, normal cell line HEK 293; type: cell-based; conditions: human, HEK 293 cells, HEK 293 normal cells, 48 h exposure
Procedure: as §1

[8] = Pharmacokinetic study in Wistar rats, i.v. bolus; type: in vivo; conditions: rat plasma, 10 mg/kg i.v. bolus
Procedure: Wistar rats (male; 8–10 weeks, 200–240 g) were procured from Central Animal Facility, BITS Pilani (Pilani, India). Animal experiment protocol was approved by Institutional Animal Ethics Committee (IAEC/RES/24/03), BITS Pilani, Pilani, and all experiments were conducted as per CPCSEA guidelines. Rats were housed in well-ventilated cages at standard laboratory conditions with regular light/dark cycles for 12 h and fed with standard normal diet ab libitum.
The pharmacokinetic study of 6cf was performed on Wistar rats. 6cf solution (prepared in normal saline with 5% w/v tween 80) was administered intravenously at the dose of 10 mg/kg with maximum dosing volume of 300 µL to each rat without fasting (n = 4). After i.v. dosing, blood samples were collected for each preset time point at 10, 20, 30, 50 min, 1.5, 2, 4, 6, 8, 12 and 24 h. 6cf plasma concentration–time profile was plotted and analyzed by non-compartmental model approach using Phoenix 2.1 WinNonlin (Pharsight Corporation, USA) to determine t1/2, elimination half-life; C0, drug concentration in plasma at t = 0; AUC0-t, area under curve from zero to the last time point; AUC0–∞, area under curve from zero to infinity; and MRT, mean residence time.
A simple liquid–liquid extraction (LLE) method was used for extraction of 6cf from the rat plasma. A 200 µL aliquot of plasma sample containing 6cf was taken in 5 mL glass tube, followed by the addition of 100 µL of internal standard (I.S.) (clobetasol, 2 µg/mL) solution. Samples were vortexed for 1 min, and then 2 mL of ethyl acetate was added as extracting solvent. The samples were vortexed for 5 min and centrifuged at 5000 rpm for 15 min at 4 °C. The organic layer was collected and evaporated to dryness at 40 ± 0.5 °C. The residue was reconstituted with 250 µL of mobile phase and vortexed for 1 min. Finally, 150 µL of sample was injected into HPLC for quantification.
A Thermo Fisher Rapid Separation (RS) UHPLC System (Ultimate 3000) equipped with a pump (LPG-3400SD), Diode Array Detector (DAD) (DAD-3000) and autosampler (ACC-3000T) with 250 µL injection loop was used for purity analysis. The UHPLC system was equilibrated for approximately 40 min before beginning the sample analysis. Column temperature was 35° throughout the analysis. 6cf and I.S. were separated on Intersil® ODS (C18) column (250 × 4.6 mm, 5µm) with a mobile phase consisting of acetonitrile:water (60:40 % v/v) run in isocratic mode at a flow rate of 1 mL/min, detection wavelength 259 nm and injection volume of 150 µL. […] Control of hardware and data handling was performed using Chromeleon software version 7.2 SR4.

CC(CCn1cc(CCCCC#Cc2nc3c(N)ncnc3n2C2CC(O)C(CO)O2)nn1)C1CCC2C3C(O)CC4CC(O)CCC4(C)C3CCC12C (centres unmarked) [VI]
IC50 [1]: 16.2 ± 2.2 µM

CC(=O)c1ccc(OCc2cn(CC(=O)C3CCC4C5CC=C6CC(O)CCC6(C)C5CCC34C)nn2)cc1 (centres unmarked) [I]
IC50 [2]: 0.03 µM

CC(CCC(=O)OCc1cn(Cc2cccc(Cn3cc(COC(=O)CCC(C)C4CCC5C6C(O)CC7CC(O)CCC7(C)C6CC(O)C45C)nn3)n2)nn1)C1CCC2C3C(O)CC4CC(O)CCC4(C)C3CC(O)C12C (centres unmarked) [V]
IC50 [3]: 3.98 µM

COC(=O)CCC(C)C1CCC2C3C(O)CC4CC(n5cc(CCCC#Cc6nc7c(N)ncnc7n6C6CC(O)C(CO)O6)nn5)CCC4(C)C3CCC12C (centres unmarked) [VII]
IC50 [4]: 10.5 ± 2.64 µM
IC50 [1]: 8.51 µM and 8.5 µM

C[C@H](CCC(=O)NCc1cn(CC(=O)c2ccc(Br)cc2)nn1)C1CCC2C3C(C[C@H](O)[C@@]21C)[C@@]1(C)CC[C@@H](O)CC1C[C@H]3O (stereo partly drawn) [6cf, (4R)-N-((1-(2-(4-Bromophenyl)-2-oxoethyl)-1H-1,2,3-triazol-4-yl)methyl)-4-((3R,7R,10S,12S,13R)-3,7,12-trihydroxy-10,13-dimethylhexadecahydro-1H-cyclopenta[a]phenanthren-17-yl)pentanamide]
viability at 10 µM [5]: 37.5%
viability at 10 µM [6]: 49.3%
total apoptosis in 4T1 cells (4T1 cells): 19.56%
apoptosis (total) in MCF-7 cells (MCF-7 cells): 46.09%
viability at 48 h, 10 µM [7]: > 86%
C0 ([8]; male, Wistar, iv, conversion of 1752.69 ng/mL, read-out: initial concentration converted to molar): ~2560 nM
AUC(0-t) ([8]; male, Wistar, iv, mean ± SEM, read-out: Area Under the Curve (0 to 12 h), AUC0–last): 2000 ± 87.4 ng·h/mL
AUC(0-inf) ([8]; male, Wistar, iv, mean ± SEM, read-out: Area Under the Curve (0 to infinity), AUC0–∞): 2690 ± 113 ng·h/mL
k el ([8]; male, Wistar, iv, mean ± SEM, read-out: Elimination Rate Constant, Ke (converted)): 3.61e-05 s⁻¹
half-life ([8]; male, Wistar, iv, mean ± SEM, read-out: Half-Life, t1/2 (converted)): 5.63 ± 0.539 h
C0 ([8]; male, Wistar, iv, mean ± SEM, read-out: Initial Concentration, C0): 1750 ± 66.5 ng/mL
MRT ([8]; male, Wistar, iv, mean ± SEM, read-out: Mean Residence Time, MRT): 8.47 ± 0.96 h
Area Under the First Moment Curve (0 to 12 h), AUMC0–last ([8]; mean ± SEM): 8155.94 ± 311.78 ng·h/mL
Area Under the First Moment Curve (0 to infinity), AUMC0–∞ ([8]; mean ± SEM): 22276.39 ± 2023.334 ng·h/mL
melting point: 144 to 145 °C
